Read-outs that look alike come from different tables or passages of the source.
Key:
[1] = rat, cited from earlier work
[2] = Naringenin concentration in milk of breastfeeding mothers on naringenin-restricted diet, before and after 250 ml red grapefruit juice (HPLC after deconjugation); assay type: in vivo; details: for k el / Cmax / AUC, mean / AUC, median: human milk; for k el: last points; for Cmax / AUC, mean / AUC, median: n 14; for AUC, mean / AUC, median: trapezoidal method
Source text: Prior to enrollment, each volunteer was informed about the course and aim of the study, and signed the informed consent. They were also provided with oral and written instructions on the diet that disallowed consumption of any naringenin-containing foods and beverages. The volunteers agreed to follow the diet and not to take any vitamin supplements or any other food supplements for the duration of their participation in the study. They followed the diet for a total of 5 days, refraining from eating foods containing larger quantities of naringenin, such as citrus fruits, citrus fruit juices, citrus fruit pulps, tomatoes and tomato-containing food products, aromatic herbs. For the first two days of the study (pre-exposure) the volunteers collected breast milk samples every 12 hours, each in the amount of four to six ml. On the third day of the study they drank a single 250 ml serving of red grapefruit juice (a 250 ml bottle) in the morning on an empty stomach. In this part of the experiment, the volunteers collected breast milk samples at the following time points: 0 (directly before drinking the juice) and 1, 2, 3, 4, 5, 6, 12, 18, 24, 36 hours post-exposure. Milk samples were collected from full breasts. Milk was collected into chemically pure disposable plastic test tubes.
The samples were frozen by the volunteers at –20°C, regularly collected from the volunteers by the investigator, transported in a laboratory deep freezer, and frozen to –80°C until analysis. Each sample was labelled with the volunteer's initials and with the date and time of sampling. During the study, we remained in constant telephone contact with the volunteers. A commercial 100% grapefruit juice originating from ecological farms in Israel, in 250 ml bottles, were used in the study. The juice was purchased from a local grocery wholesaler. All the bottles were labelled with the same lot number.
Naringenin was extracted according to the method described by Song et al. with minor changes. In brief, an aliquot (0.5 ml) of undiluted human milk was defatted two times with 2-ml of hexane. After the lipid removal, 25 μl of L-Ascorbic acid (2.7 mmol/l in ultrapure water), 25 μl of Na2-ethylenediaminetetraacetic acid (2.2 mmol/l in ultrapure water) and 3 ml of pepsin (40 mg/ml in 0.1 N HCl) were added. The samples were incubated in a ThermoMixer C (Eppendorf AG., Germany) for 15 min at 37°C and at 300 rpm. Then, the pH of the sample was adjusted to 4.5 with 1.0 N NaOH and 3.86 kU of β-glucuronidase with sulfatase contaminant was added. Afterwards the samples were incubated for 45 min at 37°C and at 300 rpm in a ThermoMixer C. After deconjugation the potential metabolites (glucuronides and sulfate derivatives) to aglycones using β-glucuronidase/sulfatase treatment, naringenin was extracted with a 3-ml aliquot of ethyl acetate of tree times, dried under vacuum and resuspended in 200 μl of mobile phase B before analysis.
Naringenin analysis was done on a Shimadzu HPLC system (Kyoto, Japan), equipped with binary pump (LC-20 AD), degasser (DGU-20A3), refrigerated autosampler (SIL-20 AC, set at 8°C), a column oven (CTO-20 AC, 30°C), a diode array detector (SPD-M20A) and a mass spectrometry detector (2010EV). Separations were performed on Kinetex XB-C18 column (100×2.1 mm, 2.6 μm particle size, Phenomenex) at 0.2 ml min^−1 flow rate. The mobile phase consisted of A: 0.4% formic acid in ultrapure water and B: 0.4% formic acid, 0.4% isopropyl alcohol in methanol. The initial conditions of gradient program were set at 98:2 (A/B) followed by a linear gradient to 55:45 (A/B) at 15 min, 20:80 (A/B) at 30 min, 98:2 (A/B) at 35 min and at 40 min, stop. The injection volume was 10 μl. Naringenin was quantified at 287 nm. MS spectra were acquired in positive ion mode over the range of m/z 50–500, both using SCAN and SIM acquisition mode (the set of SIM included 273,25 m/z). […]

[3] = system: organic anion transporting polypeptide (OATP); parameters: method as in PMID 23794501; details: cited from earlier work
[4] = female, human, in vivo, Mean naringenin concentration in human milk

Structure (SMILES): O=C1C[C@@H](c2ccc(O)cc2)Oc2cc(O[C@@H]3O[C@H](CO)[C@@H](O)[C@H](O)[C@H]3O)cc(O)c21 [7-glucoside]
- Time at which increase in serum naringenin concentration was observed ([1]; in vivo): three

Structure (SMILES): O=C1C[C@@H](c2ccc(O)cc2)Oc2cc(O)cc(O)c21 [naringenin]
- Time at which increase in serum naringenin concentration was observed ([1]; after feeding the compound): three
- Range of naringenin concentrations in initial (baseline) milk samples ([2]; female, human, in vivo): 420.86 to 1568.89 nmol/L
- k el ([2]; female, human, in vivo, 250 ml, post-exposure segment, n 11, read-out: Kel (elimination constant), mean (converted)): 3.89e-06 s⁻¹
- k el ([2]; female, human, in vivo, 250 ml, post-exposure segment, n 11, read-out: Kel (elimination constant), median (converted)): 3.61e-06 s⁻¹
- Cmax ([2]; female, human, in vivo, 250 ml, post-exposure segment, read-out: Cmax, mean): 908 nM
- Cmax ([2]; female, human, in vivo, 250 ml, post-exposure segment, read-out: Cmax, median): 714 nM
- Mean naringenin concentration in human milk ([2]; female, human, in vivo, 4 h): 908.253 nmol/L
- Mean naringenin concentration in human milk ([2]; female, human, in vivo, 12 h): 868.960 nmol/L
- concentration at 0 h [2, 4]: 674 nM
- concentration at 1 h [2, 4]: 773 nM
- concentration at 2 h [2, 4]: 651 nM
- concentration at 3 h [2, 4]: 649 nM
- concentration at 4 h [2, 4]: 908 nM
- concentration at 5 h [2, 4]: 704 nM
- concentration at 6 h [2, 4]: 650 nM
- concentration at 12 h [2, 4]: 869 nM
- concentration at 18 h [2, 4]: 772 nM
- concentration at 24 h [2, 4]: 728 nM
- concentration at 36 h [2, 4]: 702 nM
- concentration at -12 h [2, 4]: 702 nM
- concentration at -24 h [2, 4]: 844 nM
- concentration at -36 h [2, 4]: 910 nM
- concentration at -48 h [2, 4]: 823 nM
- k el ([2]; female, human, in vivo, pre-exposure segment, n 5, read-out: Kel (elimination constant), mean (converted)): 5.56e-06 s⁻¹
- k el ([2]; female, human, in vivo, pre-exposure segment, n 5, read-out: Kel (elimination constant), median (converted)): 5.56e-06 s⁻¹
- Cmax ([2]; female, human, in vivo, pre-exposure segment, read-out: Cmax, mean): 910 nM
- Cmax ([2]; female, human, in vivo, pre-exposure segment, read-out: Cmax, median): 762 nM
- Cmax ([2]; post-exposure segment, read-out: Cmax, mean): 908 nM
- AUC, mean ([2]; post-exposure, 0 h to 36 h): 27419 (nmol/l)*h
- AUC, median ([2]; post-exposure, 0 h to 36 h): 23715 (nmol/l)*h
- AUC, mean ([2]; pre-exposure, -36 h to 0 h): 27455 (nmol/l)*h
- AUC, median ([2]; pre-exposure, -36 h to 0 h): 26515 (nmol/l)*h
- Inhibition of OATP [3]: potent inhibitor

Structure (SMILES): C[C@@H]1O[C@@H](O[C@H]2[C@H](Oc3cc(O)c4c(c3)O[C@H](c3ccc(O)cc3)CC4=O)O[C@H](CO)[C@@H](O)[C@@H]2O)[C@H](O)[C@H](O)[C@H]1O [naringin, 4’, 5,7-trihydroxyflavanone-7-rhamnoglucoside]
- Time at which increase in serum naringenin concentration was observed ([1]; after feeding the compound): ten

From publication PMC5628898, “Does consumption of red grapefruit juice alter naringenin concentrations in milk produced by breastfeeding mothers?” (PLoS ONE, 2017)
